# According to patent US11786507B2, “Methods of treating HIV-associated neurological disorders (HAND)” (priority 2020, dated 2023):
# “Also recorded” adds a separate entry of the source.
# Assays:
# iTat mice [1] = assay: Open Field Test (OPT), locomotor activity; format: in vivo, mouse; conditions: PAM 15 mg/kg/day s.c. vs DMSO
# Description: (§1) Doxycycline (Dox)-inducible and astrocyte-specific HIV-1 Tat-transgenic mice (iTat) were generated as previously described.^38 Wild-type (Wt, C57BL/6) and α7 nAChR knockout mice (α7^−/−, B6.129S7-Chrna^7tm1Ba/J) were purchased from the Jackson Laboratory (Bar Harbor, ME). All the animal procedures were approved by the Institutional Animal Care and Use Committee. Mice were housed with a 12-hour light and 12-hour dark photoperiod and provided water and food ad libitum. α7^−/− iTat mice were generated by cross breeding iTat mice with α7^−/− mice. α7^−/− genotyping was slightly modified with the JumpStart™ Taq DNA Polymerase-based PCR (JumpStart™ Taq DNA Polymerase, Sigma, catalog #D9307). […] Mice of 10-14 weeks old with body weights of 20-35 grams were fed with Dox-containing diet (0.625 g/kg, Envigo, catalog #TD.01306) as stated.
# Open Field Test (OPT) and Morris Water Maze (MWZ) were performed sequentially using a computerized video tracking system (Anymaze, Stoelting) to determine the spontaneous locomotor activity and spatial learning and memory, respectively. For OPT, each mouse was allowed to move freely around a clear acrylic chamber (40.5×40.5×30.5 cm) for 10 minutes. Travel distance and maximum speed was determined by the AnyMaze software. For MWZ, a circle pool (1.2 m diameter) surrounded with a curtain was divided into four equal quadrants, and four signs with different shape were fixed onto the middle of each quadrant wall above the opaque water (24±1° C.). A hidden platform (1.5 cm below water surface) was put into a certain quadrant. Two stages consisting of 5-day training and probe test were carried out. In the training stage, four trials with a 15-20 minute interval were conducted in the every-day training, and for each trial mice were allowed to freely seek the platform within 90 seconds right after they were randomly put into one quadrant facing to the pool wall. If the mice found the platform within 90 seconds, 10 seconds would be added to allow them staying on the platform for memorizing, however, if failed, they would be directed toward the platform and allowed to stay on it for 15 seconds. Mice that were immobile or floating and unable to find the platform during the training stages were excluded from the experiments. Probe test was carried out on the next day following the 5-day training stage with a 60 seconds trial, and the platform was removed to prevent the mice from climbing onto it during the testing. One day after the behavioral tests, mice were euthanized and the brains were harvested.
# To determine if α7 nAChR is involved in HAND, iTat mice were fed with Dox-containing food pellets for 7 days, injected s.c. with a well-studied and highly specific positive allosteric modulator (PAM) PNU-120596 of α7 nAChR^73,74 […], and then subjected to open field test (OPT) for locomotor activity on day 14, and Morris Water Maze test (MWZ) for learning and spatial memory on day 15-20, and euthanized to harvest tissues on day 21 (FIG. 1A). Dox-containing food pellet feeding and PAM injection continued during the next 7 days of behavioral tests. To minimize the effects of injection on behavioral tests, PAM was injected 5 hours after each behavioral test.
# iTat mice [2] = assay: Western blotting of SYP, PSD-95, GFAP, Iba-1 in cortex and hippocampus; format: in vivo, mouse
# Description: as §1
# A RIPA buffer (50 mM Tris.HCl, pH 8.0, 280 mM NaCl, 0.5% NP-40, 1% C24H39NaO4, 0.2 mM EDTA, 2 mM EGTA and 10% glycerol) supplemented with protease inhibitors (Millipore-Sigma, catalog #S8830) and phosphatase inhibitors (Millipore-Sigma, catalog #4906845001) was used to lyse the brain tissues and cultured cells with brief sonication on ice. Protein concentrations of the lysates were determined using a Bio-Rad DC protein assay kit (Bio-Rad, catalog #5000111). Lysates were denatured in the SDS-PAGE loading buffer at 100° C. for 10 min, then electrophoretically separated by 8-15% SDS-PAGE, blotted onto 0.45 μm polyvinylidene fluoride membrane (GE Healthcare Life Sciences, catalog #10600023), and probed using appropriate antibodies against PSD-95 (Abcam, catalog #ab18258, and 1:2000 dilution), SYP (Abcam, catalog #ab8049, and 1:1000 dilution), Iba-1 (Wako, catalog #016-20001, and 1:500 dilution) and GFAP (DAKO, catalog #z330s, and 1:2000 dilution), p-p38 (Santa Cruz, catalog #sc-166182, and 1:1000 dilution), p38 (Santa cruz, catalog #sc-535, and 1:1000 dilution), p-JNK (Santa cruz, catalog #sc-6254, and 1:1000 dilution), JNK (Santa cruz, catalog #sc-571, and 1:1000 dilution), p-ERK (Santa cruz, catalog #sc-7383, and 1:1000 dilution), and ERK (Santa cruz, catalog #sc-514302, and 1:1000 dilution), α7 nAChR (Alomone, catalog #ANC-007, and 1:1000 dilution) and β-actin (Sigma-Aldrich, catalog #A1978, and 1:2000 dilution). A Bio-Rad ChemicDoc imaging system (Bio-Rad) and Image J were used for image capturing and analysis, respectively. […]
# α7−/−iTat mice = assay: PAM neuroprotection in α7 nAChR knockout iTat mice; conditions: mouse, in vivo
# Description: as §1
# Open Field Test (OPT) and Morris Water Maze (MWZ) were performed sequentially using a computerized video tracking system (Anymaze, Stoelting) to determine the spontaneous locomotor activity and spatial learning and memory, respectively. For OPT, each mouse was allowed to move freely around a clear acrylic chamber (40.5×40.5×30.5 cm) for 10 minutes. Travel distance and maximum speed was determined by the AnyMaze software. […]
# [3] = CORT, PAM 15 mg/kg/day s.c. vs DMSO
smiles,measurement,setting,value
"COc1cc(OC)c(NC(=O)Nc2cc(C)on2)cc1Cl [PAM, 1-(5-chloro-2,4-dimethoxy-phenyl)-3-(5-methyl-isoxazol-3-yl)-urea]",OPT maximum speed,iTat mice [1]; Wt and iTat mice,increases of the maximum speed of male Wt mice but not other mice
same,OPT total travel distance,iTat mice [1]; Wt mice,some improvement of the travel distance of Wt mice
same,OPT total travel distance,iTat mice [1]; iTat mice,improvement of the travel distance of iTat mice
same,GFAP expression,iTat mice [2]; [3],completely reversed the increases; also recorded: decreased GFAP in iTat mice
same,Iba-1 expression,iTat mice [2]; [3],decreased Iba-1 in both Wt and iTat mice
same,PSD-95 expression,iTat mice [2]; [3],significant increases of PSD-95 in Wt mice and even more in iTat mice
same,SYP expression,iTat mice [2]; [3],no changes
same,SYP and GFAP expression,"iTat mice [2]; HIP, DMSO- vs PAM-treated mice",no differences of SYP and GFAP
same,PSD-95 expression,"iTat mice [2]; HIP, PAM 15 mg/kg/day s.c. vs DMSO",increased PSD-95 in both Wt and iTat mice
same,"Neuroprotective effects against locomotor, learning and memory deficits",α7−/−iTat mice,abolished
